Experimental data: US20260001928A1 (CORTERIA PHARMACEUTICALS, priority 2022, published 2026)
*1 amine or outer side, *2 acyl side, *3 side chain or, on linkers, in order; H or OH if unused. Where a SMILES comes first, the peptide text is derived from it. Side-chain parts run from the residue outwards. [ ]: non-standard residue; d: D form. The star is where a group is joined. C18 diacid = O=C(O)CCCCCCCCCCCCCCCCC(=O)*; C16 diacid = O=C(O)CCCCCCCCCCCCCCC(=O)*; γGlu = O=C(O)[C@H](CCC(=O)[*:2])N[*:1]; NMeI = CC[C@H](C)[C@H](NC)C(=O)O; αMeL = CC(C)C[C@](C)(N)C(=O)O; Dap = NC[C@H](N)C(=O)O; AEEA = NCCOCCOCC(=O)O; Aib = CC(C)(N)C(=O)O

Key:
[1] = Chemical stability in buffer (pH 7.4 / pH 4.5), % purity loss; assay type: physicochemical; conditions: 40° C. vs 5° C., 14 or 28 days; for Buffer stability pH 4.5 % purity loss: 100 mM acetate buffer pH 4.5; for Buffer stability pH 7.4 % purity loss: 100 mM phosphate buffer pH 7.4
Protocol: Solubility and chemical stability were studied in 100 mM phosphate buffer (pH 7.4) and 100 mM acetate buffer (pH 4.5). Test compound powders were dissolved in both buffers at a target concentration of 10 mg/mL and incubated for 1 hour at room temperature. After centrifugation at 2500 rcf for 15 minutes, 10 μL of supernatant was diluted with 190 μL of the incubation buffer and analyzed by LC-UV (Acquity UPLC-DAD, Waters). Solubility was calculated by comparing the peak area of the test compound in the buffer sample with the peak area of the same compound dissolved at 0.5 mg/mL in water:acetonitrile 1:1, 0.1% formic acid.
From the centrifuged supernatant, two additional 80 μL aliquots were collected and diluted with 160 μL of incubation buffer. One aliquot was stored at 5° C., while the other was stored at 40° C. After 14 or 28 days, the samples were analyzed by LC-UV. Chemical stability was calculated as % loss using the following equations: […]

Sprague Dawley rats = experiment: Effect on systolic blood pressure, telemetry in Sprague Dawley rats; assay type: in vivo, rat; conditions: 0.1 mg/kg SC; for Systolic blood pressure (Mean) % change from baseline, 8 h / Systolic blood pressure (Mean) % change from baseline, 12 h / Systolic blood pressure (Mean) % change from baseline, 24 h: n=2; for Duration of action: last time point with an effect on BP still observed
How it was run: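 Sprague Dawley rats with abdominal-aorta telemetry catheters, recovered ≥10 days, received 0.1 mg/kg SC of compound or vehicle. Systolic pressure recorded 1 h pre-dose as baseline, then continuously up to 48 hours, expressed as % change from baseline; duration of action is last time point with a BP effect (n=2).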

human CRF2a receptor = molecular target: T1, human CRF2a receptor (Homo sapiens, UniProt Q13324); experiment: Activity at human CRF2a receptor, cAMP functional assay in TeloHEAC cells; assay type: cell-based; conditions: TeloHEAC cells stably expressing human CRF2a receptor, relative to urocortin 2 (100 nM = 100%)
T1 construct: expressed in transfected cells; host or cells: TeloHEAC cells
T1 sequence (Q13324 1-411): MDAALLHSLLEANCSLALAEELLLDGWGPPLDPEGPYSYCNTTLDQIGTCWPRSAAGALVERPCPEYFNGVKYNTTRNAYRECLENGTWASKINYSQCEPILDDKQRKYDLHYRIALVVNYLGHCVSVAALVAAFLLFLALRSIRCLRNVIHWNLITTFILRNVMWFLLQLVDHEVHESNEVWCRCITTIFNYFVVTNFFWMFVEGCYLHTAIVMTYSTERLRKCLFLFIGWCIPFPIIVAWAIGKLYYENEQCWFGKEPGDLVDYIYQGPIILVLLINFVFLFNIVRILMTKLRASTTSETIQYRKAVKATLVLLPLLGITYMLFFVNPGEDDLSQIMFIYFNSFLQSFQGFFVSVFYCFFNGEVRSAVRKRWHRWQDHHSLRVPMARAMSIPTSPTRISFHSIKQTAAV
How it was run: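 TeloHEAC cells stably expressing human CRF2a (10000 cells/well, suspended in HBSS/20 mM HEPES with 2 mM IBMX) were exposed to compounds for 30 min at 37 °C. cAMP was read as the 665/620 nm fluorescence ratio after 1 h at room temperature. EC50 was derived relative to 100 nM urocortin 2, set as 100%.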

CFR1R receptor = molecular target: T2, CFR1R receptor (Homo sapiens, UniProt P34998); experiment: Activity at anti-target CFR1R receptor, cAMP assay in CRF1R-overexpression CHO-K1 cells; assay type: cell-based; conditions: 100% = Sauvagine at 100 nM; for EC50: cAMP
T2 construct: host or cells: CHO-K1 (clone 2)
T2 sequence (P34998 24-415): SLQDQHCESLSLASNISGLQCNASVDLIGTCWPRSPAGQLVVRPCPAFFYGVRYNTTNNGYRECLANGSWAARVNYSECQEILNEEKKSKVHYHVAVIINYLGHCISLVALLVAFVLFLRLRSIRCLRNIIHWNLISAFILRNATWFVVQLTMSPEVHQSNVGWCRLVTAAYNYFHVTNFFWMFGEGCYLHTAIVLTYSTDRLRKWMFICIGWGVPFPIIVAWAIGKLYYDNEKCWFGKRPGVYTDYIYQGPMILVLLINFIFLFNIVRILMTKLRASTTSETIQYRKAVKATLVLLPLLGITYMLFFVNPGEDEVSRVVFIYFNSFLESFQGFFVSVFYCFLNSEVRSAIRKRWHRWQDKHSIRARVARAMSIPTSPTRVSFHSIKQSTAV
How it was run: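 Clone 2 cells were cultured in F12 (Hams)/10% FBS/400 μg/ml G418 at 37° C./5% CO2, frozen in medium with 10% DMSO, and thawed vials used. The protocol followed the TeloHAEC procedure, with 4000 cells/well final and Sauvagine at 100 nM defining 100% activation.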

Row | SMILES | Buffer stability pH 4.5 % purity loss [1] | Buffer stability pH 7.4 % purity loss [1] | Systolic blood pressure (Mean) % change from baseline, 8 h (Sprague Dawley rats) | Systolic blood pressure (Mean) % change from baseline, 12 h (Sprague Dawley rats) | Systolic blood pressure (Mean) % change from baseline, 24 h (Sprague Dawley rats) | Duration of action (Sprague Dawley rats) | EC50 (human CRF2a receptor) | Emax (% I) (CFR1R receptor) | EC50 (CFR1R receptor)
1 | CC[C@H](C)[C@H](NC(C)=O)C(=O)N[C@H](C(=O)N[C@@H](CC(C)C)C(=O)N[C@@H](CO)C(=O)N[C@@H](CC(C)C)C(=O)N[C@@H](CC(=O)O)C(=O)N[C@H](C(=O)N1CCC[C@H]1C(=O)N[C@H](C(=O)N[C@@H](CCCCN)C(=O)N[C@@](C)(CC(C)C)C(=O)N[C@@H](CCCCNC(=O)CC[C@H](NC(=O)CCCCCCCCCCCCCCC(=O)O)C(=O)O)C(=O)N[C@@H](CCC(N)=O)C(=O)N[C@H](C(=O)N[C@@H](CC(C)C)C(=O)N[C@@H](CC(C)C)C(=O)N[C@@H](CCCCN)C(=O)N[C@@H](CCC(N)=O)C(=O)N[C@@H](CCC(=O)O)C(=O)N[C@@H](CCCNC(=N)N)C(=O)N[C@@H](CCC(N)=O)C(=O)N[C@@H](CCCCN)C(=O)N[C@@H](CCCCN)C(=O)N[C@@H](CCC(N)=O)C(=O)N[C@@H](CCCNC(=N)N)C(=O)N[C@@H](CCC(=O)O)C(=O)N[C@@H](CCC(N)=O)C(=O)N[C@@H](C)C(=O)N[C@@H](CCC(=O)O)C(=O)N[C@@H](CCCCN)C(=O)N[C@@H](CC(N)=O)C(=O)NC(C)(C)C(=O)N[C@@H](CCC(N)=O)C(=O)N[C@H](C(=O)N[C@@H](CC(C)C)C(=O)N[C@@H](CCC(=O)O)C(=O)N[C@@H](CCC(N)=O)C(=O)N[C@H](C(N)=O)C(C)C)[C@@H](C)CC)[C@@H](C)CC)[C@@H](C)CC)C(C)C)C(C)C [compound 19] (Ac-IVLSLDVPIK[αMeL]K([γGlu-C16 diacid])QILLKQERQKKQREQAEKN[Aib]QILEQV-NH2) | 0/0 ^ % | 0/0 ^ % | −21% | 0% | 10% | 11 h | 0.28 nM | 6 % I | > 250 nM
2 | CC[C@H](C)[C@H](NC(C)=O)C(=O)N[C@H](C(=O)N[C@@H](CC(C)C)C(=O)N[C@@H](CO)C(=O)N[C@@H](CC(C)C)C(=O)N[C@@H](CC(=O)O)C(=O)N[C@@H](C(=O)N1CCC[C@H]1C(=O)N[C@H](C(=O)N[C@@H](CCCCN)C(=O)N[C@@H](CC(C)C)C(=O)N[C@@H](CCCCNC(=O)COCCOCCNC(=O)COCCOCCNC(=O)CC[C@H](NC(=O)CCCCCCCCCCCCCCCCC(=O)O)C(=O)O)C(=O)N[C@@H](CCCCN)C(=O)N[C@H](C(=O)N[C@@H](CC(C)C)C(=O)N[C@@H](CC(C)C)C(=O)N[C@@H](CCC(=O)O)C(=O)N[C@@H](CCC(N)=O)C(=O)N[C@@H](CCC(=O)O)C(=O)N[C@@H](CCCCN)C(=O)N[C@@H](CCC(N)=O)C(=O)N[C@@H](CCCCN)C(=O)N[C@@H](CCCCN)C(=O)N[C@@H](CCC(N)=O)C(=O)N[C@@H](CCCNC(=N)N)C(=O)N[C@@H](CCC(=O)O)C(=O)N[C@@H](CCC(N)=O)C(=O)N[C@@H](C)C(=O)N[C@@H](CCC(=O)O)C(=O)N[C@H](C(=O)N[C@@H](CC(N)=O)C(=O)N[C@@H](C)C(=O)N[C@@H](CCC(N)=O)C(=O)N[C@H](C(=O)N[C@@H](CC(C)C)C(=O)N[C@@H](C)C(=O)N[C@@H](CCC(N)=O)C(=O)N[C@H](C(N)=O)C(C)C)[C@@H](C)CC)[C@@H](C)O)[C@@H](C)CC)[C@@H](C)CC)C(C)C)C(C)C [compound 100] (Ac-IVLSLD[dV]PIKLK([AEEA-AEEA-γGlu-C18 diacid])KILLEQEKQKKQREQAETNAQILAQV-NH2) | 0% | 13.2% | −22% | −12% | −9% | >24 h | 0.41 nM | 8 % I | > 250 nM
3 | CC[C@H](C)[C@H](NC)C(=O)N[C@H](C(=O)N[C@@H](CC(C)C)C(=O)N[C@@H](CO)C(=O)N[C@@H](CC(C)C)C(=O)N[C@@H](CC(=O)O)C(=O)N[C@@H](C(=O)N1CCC[C@H]1C(=O)N[C@H](C(=O)N[C@@H](CCCCN)C(=O)N[C@@H](CC(C)C)C(=O)N[C@@H](CCCCNC(=O)CC[C@H](NC(=O)CCCCCCCCCCCCCCC(=O)O)C(=O)O)C(=O)N[C@@H](CCCCN)C(=O)N[C@H](C(=O)N[C@@H](CC(C)C)C(=O)N[C@@H](CC(C)C)C(=O)N[C@@H](CCC(=O)O)C(=O)N[C@@H](CCC(N)=O)C(=O)N[C@@H](CCC(=O)O)C(=O)N[C@@H](CCCCN)C(=O)N[C@@H](CCC(N)=O)C(=O)N[C@@H](CCCCN)C(=O)N[C@@H](CCCCN)C(=O)N[C@@H](CCC(N)=O)C(=O)N[C@@H](CCCNC(=N)N)C(=O)N[C@@H](CCC(=O)O)C(=O)N[C@@H](CCC(N)=O)C(=O)N[C@@H](C)C(=O)N[C@@H](CCC(=O)O)C(=O)N[C@H](C(=O)N[C@@H](CC(N)=O)C(=O)NC(C)(C)C(=O)N[C@@H](CCC(N)=O)C(=O)N[C@H](C(=O)N[C@@H](CC(C)C)C(=O)N[C@@H](C)C(=O)N[C@@H](CCC(N)=O)C(=O)N[C@H](C(N)=O)C(C)C)[C@@H](C)CC)[C@@H](C)O)[C@@H](C)CC)[C@@H](C)CC)C(C)C)C(C)C [compound 64] (H-[NMeI]VLSLD[dV]PIKLK([γGlu-C16 diacid])KILLEQEKQKKQREQAETN[Aib]QILAQV-NH2) | nd/0 ^ % | – | −25% | −13% | 3% | 23 h | 0.19 nM | 4 % I | > 250 nM
4 | CC[C@H](C)[C@H](NC(C)=O)C(=O)N[C@H](C(=O)N[C@@H](CC(C)C)C(=O)N[C@@H](CO)C(=O)N[C@@H](CC(C)C)C(=O)N[C@@H](CC(=O)O)C(=O)N[C@@H](C(=O)N1CCC[C@H]1C(=O)N[C@H](C(=O)N[C@@H](CCCCN)C(=O)N[C@@H](CC(C)C)C(=O)N[C@@H](CCCCNC(=O)CC[C@H](NC(=O)CCCCCCCCCCCCCCC(=O)O)C(=O)O)C(=O)N[C@@H](CCCCN)C(=O)N[C@H](C(=O)N[C@@H](CC(C)C)C(=O)N[C@@H](CC(C)C)C(=O)N[C@@H](CCC(=O)O)C(=O)N[C@@H](CCC(N)=O)C(=O)N[C@@H](CCC(=O)O)C(=O)N[C@@H](CCCCN)C(=O)N[C@@H](CCC(N)=O)C(=O)N[C@@H](CCCCN)C(=O)N[C@@H](CCCCN)C(=O)N[C@@H](CCC(N)=O)C(=O)N[C@@H](CCCNC(=N)N)C(=O)N[C@@H](CCC(=O)O)C(=O)N[C@@H](CCC(N)=O)C(=O)N[C@@H](C)C(=O)N[C@@H](CCC(=O)O)C(=O)N[C@H](C(=O)N[C@@H](CC(N)=O)C(=O)N[C@@H](CN)C(=O)N[C@@H](CCC(N)=O)C(=O)N[C@H](C(=O)N[C@@H](CC(C)C)C(=O)N[C@@H](C)C(=O)N[C@@H](CCC(N)=O)C(=O)N[C@H](C(N)=O)C(C)C)[C@@H](C)CC)[C@@H](C)O)[C@@H](C)CC)[C@@H](C)CC)C(C)C)C(C)C [compound 55] (Ac-IVLSLD[dV]PIKLK([γGlu-C16 diacid])KILLEQEKQKKQREQAETN[Dap]QILAQV-NH2) | 28.9% | 73.5% | −31% | −23% | 0% | 23 h | 0.42 nM | 5 % I | > 250 nM
